Measured values taken from US9125913B2, “Bcl-2-selective apoptosis-inducing agents for the treatment of cancer and immune diseases” (AbbVie Inc., priority 2008, dated 2015).

tested on: GST-Bcl-2; test: TR-FRET binding assay, Bcl-2; details: TR-FRET Ki values
Summary of the method: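 Compounds serially diluted in DMSO from 50 μM (2× starting concentration, 10% DMSO), mixed with GST-tagged protein, F-Bak peptide probe and Tb-labeled antibody, incubated 3 h at room temperature.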

**Q.** With `CC1(C)CCC(CN2CCN(c3ccc(C(=O)NS(=O)(=O)c4ccc(NCC5CCOCC5)c(S(=O)(=O)C(F)(F)F)c4)c(Oc4cccc5[nH]ccc45)c3)CC2)=C(c2ccc(Cl)cc2)C1` [EXAMPLE 303, 4-(4-{[2-(4-chlorophenyl)-4,4-dimethylcyclohex-1-en-1-yl]methyl}piperazin-1-yl)-2-(1H-indol-4-yloxy)-N-({4-[(tetrahydro-2H-pyran-4-ylmethyl)amino]-3-[(trifluoromethyl)sulfonyl]phenyl}sulfonyl)benzamide] as the compound, how does the “Binding selectivity ratio (Bcl-XL Ki/Bcl-2 Ki)” value (“Binding selectivity ratio” below) read?
**A.** >445.9

**Q.** For `CN1CCN(Nc2ccc(S(=O)(=O)NC(=O)c3ccc(N4CCN(CC5=C(c6ccc(Cl)cc6)CC(C)(C)CC5)CC4)cc3Oc3cccc4[nH]cnc34)cc2[N+](=O)[O-])CC1` [EXAMPLE 453, 2-(1H-benzimidazol-4-yloxy)-4-(4-{[2-(4-chlorophenyl)-4,4-dimethylcyclohex-1-en-1-yl]methyl}piperazin-1-yl)-N-({4-[(4-methylpiperazin-1-yl)amino]-3-nitrophenyl}sulfonyl)benzamide], which “Binding selectivity ratio” value is on record?
**A.** 363.04

**Q.** For `CC1(C)CCC(CN2CCN(c3ccc(C(=O)NS(=O)(=O)c4ccc(NCC5(N)CCCCC5)c([N+](=O)[O-])c4)c(Oc4ccc5[nH]ccc5c4)c3)CC2)=C(c2ccc(Cl)cc2)C1` [EXAMPLE 250, N-[(4-{[(1-aminocyclohexyl)methyl]amino}-3-nitrophenyl)sulfonyl]-4-(4-{[2-(4-chlorophenyl)-4,4-dimethylcyclohex-1-en-1-yl]methyl}piperazin-1-yl)-2-(1H-indol-5-yloxy)benzamide], which “Binding selectivity ratio” value is on record?
**A.** 811

**Q.** How did the “Binding selectivity ratio” value turn out when `CC1(C)CCC(CN2CCN(c3ccc(C(=O)NS(=O)(=O)c4ccc(NC5CCN(C6Cc7ccccc7C6)CC5)c([N+](=O)[O-])c4)c(Oc4cccc5[nH]ccc45)c3)CC2)=C(c2ccc(Cl)cc2)C1` [EXAMPLE 227, 4-(4-{[2-(4-chlorophenyl)-4,4-dimethylcyclohex-1-en-1-yl]methyl}piperazin-1-yl)-N-[(4-{[1-(2,3-dihydro-1H-inden-2-yl)piperidin-4-yl]amino}-3-nitrophenyl)sulfonyl]-2-(1H-indol-4-yloxy)benzamide] was run?
**A.** >96.6

**Q.** `Cn1cncc1CNc1ccc(S(=O)(=O)NC(=O)c2ccc(N3CCN(CC4=C(c5ccc(Cl)cc5)CC(C)(C)CC4)CC3)cc2Oc2ccc3[nH]ccc3c2)cc1[N+](=O)[O-]` [EXAMPLE 360, 4-(4-{[2-(4-chlorophenyl)-4,4-dimethylcyclohex-1-en-1-yl]methyl}piperazin-1-yl)-2-(1H-indol-5-yloxy)-N-[(4-{[(1-methyl-1H-imidazol-5-yl)methyl]amino}-3-nitrophenyl)sulfonyl]benzamide] was tested. Which “Binding selectivity ratio” value did it give?
**A.** 633.9

**Q.** How did the “Binding selectivity ratio” value turn out when `CN(C)CC(=O)N1CCO[C@@H](COc2ncc(S(=O)(=O)NC(=O)c3ccc(N4CCN(CC5=C(c6ccc(Cl)cc6)CC(C)(C)CC5)CC4)cc3Oc3cccc4[nH]cnc34)cc2Cl)C1` [EXAMPLE 424, 2-(1H-benzimidazol-4-yloxy)-N-[(5-chloro-6-{[(2R)-4-(N,N-dimethylglycyl)morpholin-2-yl]methoxy}pyridin-3-yl)sulfonyl]-4-(4-{[2-(4-chlorophenyl)-4,4-dimethylcyclohex-1-en-1-yl]methyl}piperazin-1-yl)benzamide] was run?
**A.** 782.52

**Q.** With `CC(C)Oc1cc(-c2ccc(Cl)cc2)c(CN2CCN(c3ccc(C(=O)NS(=O)(=O)c4ccc(NCC5CCOCC5)c([N+](=O)[O-])c4)c(Oc4ccc5[nH]ccc5c4)c3)CC2)cn1` [EXAMPLE 330, 4-(4-{[4-(4-chlorophenyl)-6-isopropoxypyridin-3-yl]methyl}piperazin-1-yl)-2-(1H-indol-5-yloxy)-N-({3-nitro-4-[(tetrahydro-2H-pyran-4-ylmethyl)amino]phenyl}sulfonyl)benzamide] as the compound, how does the “Binding selectivity ratio” value read?
**A.** >8.8

**Q.** How did the “Binding selectivity ratio” value turn out when `CC1(C)CCC(CN2CCN(c3ccc(C(=O)NS(=O)(=O)c4cnc(OCC5(F)CCN(C(CF)CF)CC5)c(C(F)(F)F)c4)c(Oc4cccc5[nH]ncc45)c3)CC2)=C(c2ccc(Cl)cc2)C1` [EXAMPLE 459, 4-(4-{[2-(4-chlorophenyl)-4,4-dimethylcyclohex-1-en-1-yl]methyl}piperazin-1-yl)-N-{[6-({4-fluoro-1-[2-fluoro-1-(fluoromethyl)ethyl]piperidin-4-yl}methoxy)-5-(trifluoromethyl)pyridin-3-yl]sulfonyl}-2-(1H-indazol-4-yloxy)benzamide] was run?
**A.** 541.58

**Q.** For `CC1(C)CCC(CN2CCN(c3ccc(C(=O)NS(=O)(=O)c4ccc(N[C@H]5CC[C@H](N6CCOCC6)CC5)c([N+](=O)[O-])c4)c(Oc4cccc5[nH]ccc45)c3)CC2)=C(c2ccc(Cl)cc2)C1` [EXAMPLE 204, Trans-4-(4-{[2-(4-chlorophenyl)-4,4-dimethylcyclohex-1-en-1-yl]methyl}piperazin-1-yl)-2-(1H-indol-4-yloxy)-N-({4-[(4-morpholin-4-ylcyclohexyl)amino]-3-nitrophenyl}sulfonyl)benzamide], which “Binding selectivity ratio” value is on record?
**A.** 291.3

**Q.** How did the “Binding selectivity ratio” value turn out when `CC1(C)CCC(CN2CCN(c3ccc(C(=O)NS(=O)(=O)c4cnc(OCC5CCOCC5)c(C#N)c4)c(Oc4cccc5[nH]ccc45)c3)CC2)=C(c2ccc(Cl)cc2)C1` [EXAMPLE 386, 4-(4-{[2-(4-chlorophenyl)-4,4-dimethylcyclohex-1-en-1-yl]methyl}piperazin-1-yl)-N-{[5-cyano-6-(tetrahydro-2H-pyran-4-ylmethoxy)pyridin-3-yl]sulfonyl}-2-(1H-indol-4-yloxy)benzamide] was run?
**A.** 494.5

**Q.** For `CC1(C)CCC(CN2CCN(c3ccc(C(=O)NS(=O)(=O)c4ccc(Nc5ccc(O)cc5)c([N+](=O)[O-])c4)c(Oc4ccc5[nH]ccc5c4)c3)CC2)=C(c2ccc(Cl)cc2)C1` [EXAMPLE 375, 4-(4-{[2-(4-chlorophenyl)-4,4-dimethylcyclohex-1-en-1-yl]methyl}piperazin-1-yl)-N-({4-[(4-hydroxyphenyl)amino]-3-nitrophenyl}sulfonyl)-2-(1H-indol-5-yloxy)benzamide], which “Binding selectivity ratio” value is on record?
**A.** >58.6

**Q.** How did the “Binding selectivity ratio” value turn out when `CN(C)CCCNc1ccc(S(=O)(=O)NC(=O)c2ccc(N3CCN(CC4=C(c5ccc(Cl)cc5)CC(C)(C)CC4)CC3)cc2Oc2ccc3[nH]ccc3c2)cc1S(=O)(=O)C(F)(F)Cl` [Example 67, N-[(3-{[chloro(difluoro)methyl]sulfonyl}-4-{[3-(dimethylamino)propyl]amino}phenyl)sulfonyl]-4-(4-{[2-(4-chlorophenyl)-4,4-dimethylcyclohex-1-en-1-yl]methyl}piperazin-1-yl)-2-(1H-indol-5-yloxy)benzamide] was run?
**A.** >2.3

**Q.** How did the “Binding selectivity ratio” value turn out when `CC(C)n1cc(CN2CCN(c3ccc(C(=O)NS(=O)(=O)c4ccc(NCC5CCOCC5)c([N+](=O)[O-])c4)c(Oc4ccc5[nH]ccc5c4)c3)CC2)c(-c2ccc(Cl)cc2)cc1=O` [EXAMPLE 307, 4-(4-{[4-(4-chlorophenyl)-1-isopropyl-6-oxo-1,6-dihydropyridin-3-yl]methyl}piperazin-1-yl)-2-(1H-indol-5-yloxy)-N-({3-nitro-4-[(tetrahydro-2H-pyran-4-ylmethyl)amino]phenyl}sulfonyl)benzamide] was run?
**A.** >177.1

**Q.** How did the “Binding selectivity ratio” value turn out when `CC1(C)CCC(CN2CCN(c3ccc(C(=O)NS(=O)(=O)c4ccc(OCC5CCOCC5)c([N+](=O)[O-])c4)c(Oc4cccc5[nH]ccc45)c3)CC2)=C(c2ccc(Cl)cc2)C1` [EXAMPLE 289, 4-(4-{[2-(4-chlorophenyl)-4,4-dimethylcyclohex-1-en-1-yl]methyl}piperazin-1-yl)-2-(1H-indol-4-yloxy)-N-{[3-nitro-4-(tetrahydro-2H-pyran-4-ylmethoxy)phenyl]sulfonyl}benzamide] was run?
**A.** >5917.7

**Q.** With `CC1(C)CCC(c2ccc(Cl)cc2)=C(CN2CCN(c3ccc(C(=O)NS(=O)(=O)c4ccc(NCCCN5CCOCC5)c([N+](=O)[O-])c4)c(Oc4ccccc4)c3)CC2)C1` [Example 19, 4-(4-{[2-(4-chlorophenyl)-5,5-dimethylcyclohex-1-en-1-yl]methyl}piperazin-1-yl)-N-({4-[(3-morpholin-4-ylpropyl)amino]-3-nitrophenyl}sulfonyl)-2-phenoxybenzamide] as the compound, how does the “Binding selectivity ratio” value read?
**A.** 23.6

**Q.** How did the “Binding selectivity ratio” value turn out when `CO[C@H]1CC[C@H](CNc2ccc(S(=O)(=O)NC(=O)c3ccc(N4CCN(CC5=C(c6ccc(Cl)cc6)CC(C)(C)CC5)CC4)cc3Oc3cccc4[nH]cnc34)cc2[N+](=O)[O-])CC1` [EXAMPLE 440, Trans-2-(1H-benzimidazol-4-yloxy)-4-(4-{[2-(4-chlorophenyl)-4,4-dimethylcyclohex-1-en-1-yl]methyl}piperazin-1-yl)-N-[(4-{[(4-methoxycyclohexyl)methyl]amino}-3-nitrophenyl)sulfonyl]benzamide] was run?
**A.** 4549.1

**Q.** With `CN(C)CCCOc1ccc(-c2ccc(Cl)cc2)c(CN2CCN(c3ccc(C(=O)NS(=O)(=O)c4ccc(NCC5CCOCC5)c(S(=O)(=O)C(F)(F)F)c4)c(Oc4ccccc4)c3)CC2)c1` [Example 119, 4-[4-({4′-chloro-4-[3-(dimethylamino)propoxy]-1,1′-biphenyl-2-yl}methyl)piperazin-1-yl]-2-phenoxy-N-({4-[(tetrahydro-2H-pyran-4-ylmethyl)amino]-3-[(trifluoromethyl)sulfonyl]phenyl}sulfonyl)benzamide] as the compound, how does the “Binding selectivity ratio” value read?
**A.** 370.2

**Q.** For `O=C(NS(=O)(=O)c1ccc(NCC2CCOCC2)c([N+](=O)[O-])c1)c1ccc(N2CCN(Cc3ccccc3-c3ccc(Cl)cc3)CC2)cc1Oc1cccnc1` [Example 79, 4-{4-[(4′-chloro-1,1′-biphenyl-2-yl)methyl]piperazin-1-yl}-N-({3-nitro-4-[(tetrahydro-2H-pyran-4-ylmethyl)amino]phenyl}sulfonyl)-2-(pyridin-3-yloxy)benzamide], which “Binding selectivity ratio” value is on record?
**A.** 47.4

**Q.** For `CC1(C)CCC(CN2CCN(c3ccc(C(=O)NS(=O)(=O)c4ccc(NC[C@H]5CC[C@@H](O)CC5)c([N+](=O)[O-])c4)c(Oc4ccc5[nH]ccc5c4)c3)CC2)=C(c2ccc(Cl)cc2)C1` [EXAMPLE 312, Cis-4-(4-{[2-(4-chlorophenyl)-4,4-dimethylcyclohex-1-en-1-yl]methyl}piperazin-1-yl)-N-[(4-{[(4-hydroxycyclohexyl)methyl]amino}-3-nitrophenyl)sulfonyl]-2-(1H-indol-5-yloxy)benzamide], which “Binding selectivity ratio” value is on record?
**A.** >1941.2
